Drawing on ChEMBL document CHEMBL1154771, “Discovery of the first series of small molecule H5N1 entry inhibitors” (J Med Chem, 2009), this text covers Activity and IC50 for ten compounds.

pIC50: −log10 of the molar value.

Holding throughout (format): cell-based
The subject of test [1] is A549. Kind of test: Inhibition of Influenza A virus (A/Bar-headed Goose/Qinghai/59/05(H5N1)) hemagglutininin-mediated viral entry into human A549 cells assessed as infectivity at 10 uM after 48 hrs postinfection by luciferase assay relative to control. On the set-up: scale not given: the % may be the effect or the level left.
Test [2] deals with A549. The test can be described thus: Inhibition of Influenza A virus (A/Viet Nam/1203/2004(H5N1)) hemagglutininin-mediated viral entry into human A549 cells assessed as infectivity at 10 uM after 48 hrs postinfection by luciferase assay relative to control. Further details: scale not given: the % may be the effect or the level left.
The subject of test [3] is A549. The test can be described thus: Inhibition of Vesicular stomatitis virus envelope glycoprotein-mediated viral entry into human A549 cells assessed as infectivity at 10 uM after 48 hrs postinfection by luciferase assay relative to control. On the set-up: scale not given: the % may be the effect or the level left.
Test [4] is described as follows: Inhibition of Influenza A virus (A/Bar-headed Goose/Qinghai/59/05(H5N1)) hemagglutininin-mediated viral entry into human A549 cells assessed as luciferase activity after 48 hrs postinfection by luminometry.
A short description of test [5]: Inhibition of Influenza A virus (A/Viet Nam/1203/2004(H5N1)) hemagglutininin-mediated viral entry into human A549 cells assessed as luciferase activity after 48 hrs postinfection by luminometry.

For `COC(=O)[C@]12CCC(C)(C)C[C@H]1C1=CC[C@@H]3[C@@]4(C)CC[C@H](O[C@@H]5O[C@H](CO)[C@@H](O[C@@H]6O[C@@H](C)[C@H](O)[C@@H](O)[C@H]6O)[C@H](O)[C@H]5O[C@@H]5O[C@@H](C)[C@H](O)[C@@H](O)[C@H]5O)C(C)(C)[C@@H]4CC[C@@]3(C)[C@]1(C)CC2`, the Activity in the test on A549 [1] was 35.3%; in the test on A549 [2], 17.5%; in the test on A549 [3] it was 48.4%.

On to `CCC(/C=C/[C@@H](C)[C@H]1CC[C@H]2[C@@H]3CC=C4C[C@@H](O[C@@H]5O[C@H](CO)[C@@H](O[C@@H]6O[C@@H](C)[C@H](O)[C@@H](O)[C@H]6O)[C@H](O)[C@H]5O[C@@H]5O[C@@H](C)[C@H](O)[C@@H](O)[C@H]5O)CC[C@]4(C)[C@H]3CC[C@]12C)C(C)C` (stereo partly specified), for which the results for the Activity in the test with A549 [1], with A549 [2] and with A549 [3] were 73.6%, 64.6% and 76.2%, respectively.

Take `C[C@@H]1CC[C@@]2(OC1)O[C@H]1C[C@H]3[C@@H]4C[C@H](O)[C@H]5C[C@@H](O[C@@H]6O[C@H](CO)[C@@H](O[C@@H]7O[C@@H](C)[C@H](O)[C@@H](O)[C@H]7O)[C@H](O)[C@H]6O[C@@H]6O[C@@H](C)[C@H](O)[C@@H](O)[C@H]6O)CC[C@]5(C)[C@H]4CC[C@]3(C)[C@H]1[C@@H]2C`: the pIC50 (as a rule, the IC50 on a negative log10 scale, so that one unit is a factor of ten) is 5.14 in test [4] and 5.11 in test [5]. In addition, the Activity with A549 [1] is 42.6%; in the test on A549 [2], 36.3%; in the test on A549 [3], 111%.

As for `C[C@@H]1CC[C@@]2(OC1)O[C@H]1C[C@H]3[C@@H]4C[C@H](O)[C@H]5C[C@@H](O[C@@H]6O[C@H](CO)[C@@H](O)[C@H](O)[C@H]6O[C@@H]6O[C@@H](C)[C@H](O)[C@@H](O)[C@H]6O)CC[C@]5(C)[C@H]4CC[C@]3(C)[C@H]1[C@@H]2C`, the figures for the Activity in the test on A549 [1], with A549 [2] and with A549 [3] were 61%, 57.9% and 122%, respectively.

For `Cc1cn([C@H]2C[C@H](N=[N+]=[N-])[C@@H](CO)O2)c(=O)[nH]c1=O` [ZIDOVUDINE], the pIC50 in test [4] was 7.92; in test [5], 7.96. The Activity with A549 [3] turned out to be 0.015%.

Consider `CC(=O)O[C@H]1C[C@@H]2[C@H](CC[C@]3(C)[C@@H]4[C@H](C[C@@H]23)O[C@]2(CC[C@@H](C)CO2)[C@H]4C)[C@@]2(C)CC[C@H](O[C@@H]3O[C@H](CO)[C@@H](O[C@@H]4O[C@@H](C)[C@H](O)[C@@H](O)[C@H]4O)[C@H](O)[C@H]3O[C@@H]3O[C@@H](C)[C@H](O)[C@@H](O)[C@H]3O)C[C@H]12`, for which the pIC50 is 5.12 in test [4] and 5.03 in test [5]. For the same compound, the Activity in the test on A549 [1] was determined as 50.4%; with A549 [2] it was 46.6%; in the test on A549 [3], 101%.

In the case of `COC(=O)[C@]12CC[C@@H](C)[C@H](C)[C@H]1C1=CC[C@@H]3[C@@]4(C)CC[C@H](O[C@@H]5O[C@H](CO)[C@@H](O[C@@H]6O[C@@H](C)[C@H](O)[C@@H](O)[C@H]6O)[C@H](O)[C@H]5O[C@@H]5O[C@@H](C)[C@H](O)[C@@H](O)[C@H]5O)C(C)(C)[C@@H]4CC[C@@]3(C)[C@]1(C)CC2`, the pIC50 in test [4] was 5.22; in test [5], 5.07. Besides, the Activity with A549 [1] came out at 37.7%; with A549 [2], 43.3%; in the test with A549 [3] it was 86%.

Turning to `C[C@@H]1CC[C@@]2(OC1)O[C@H]1C[C@H]3[C@@H]4C[C@H](O)[C@H]5C[C@@H](O[C@@H]6O[C@H](CO)[C@@H](O[C@@H]7O[C@@H](C)[C@H](O)[C@@H](O)[C@H]7O)[C@H](O)[C@H]6O)CC[C@]5(C)[C@H]4CC[C@]3(C)[C@H]1[C@@H]2C`, the results for the Activity with A549 [1], with A549 [2] and with A549 [3] were 98.2%, 87.4% and 117%, respectively.

In the case of `C[C@@H](CO)CC[C@H]1O[C@H]2C[C@H]3[C@@H]4C[C@H](O)[C@H]5C[C@@H](O[C@@H]6O[C@H](CO)[C@@H](O[C@@H]7O[C@@H](C)[C@H](O)[C@@H](O)[C@H]7O)[C@H](O)[C@H]6O[C@@H]6O[C@@H](C)[C@H](O)[C@@H](O)[C@H]6O)CC[C@]5(C)[C@H]4CC[C@]3(C)[C@H]2[C@@H]1C`, the Activity in the test on A549 [1] turned out to be 97.9%; in the test on A549 [2], 102%; in the test with A549 [3], 111%.

On to `C[C@@H]1O[C@@H](O[C@H]2[C@H](O[C@H]3CC[C@@]4(C)C(=CC[C@@H]5[C@@H]4CC[C@]4(C)C(=O)CC[C@@H]54)C3)O[C@H](CO)[C@@H](O[C@@H]3O[C@@H](C)[C@H](O)[C@@H](O)[C@H]3O)[C@@H]2O)[C@H](O)[C@H](O)[C@H]1O`, for which the values for the Activity in the test on A549 [1], with A549 [2] and in the test on A549 [3] were 108%, 106% and 100%, respectively.
